Measured values from the supplement of paper PMC10307832.

Assays:
Test in all cases: relative viability (nuclei count vs DMSO), 5 days (fraction); higher = more cells survive
Lapatinib + Olaparib = compound: CS(=O)(=O)CCNCc1ccc(-c2ccc3ncnc(Nc4ccc(OCc5cccc(F)c5)c(Cl)c4)c3c2)o1 [Lapatinib] + O=C(c1cc(Cc2n[nH]c(=O)c3ccccc23)ccc1F)N1CCN(C(=O)C2CC2)CC1 [Olaparib] (partner 8 µM)
In short: (§1)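 For relative viability, nuclei counts in treated wells were divided by those in vehicle wells. Lung cancer cell lines had been pin-tool dosed in 1536-well plates the day after seeding and cultured for 5 days, then fixed and stained in one step (final 0.05% Triton X-100, 1% formaldehyde, 1 ug/ml Hoechst) and imaged at 4×. Doses were one drug alone or a fixed anchor-drug dose plus five library-drug doses (not always all listed) in √10 steps, and values are duplicate-plate medians.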

Lapatinib + Dasatinib = compound: CS(=O)(=O)CCNCc1ccc(-c2ccc3ncnc(Nc4ccc(OCc5cccc(F)c5)c(Cl)c4)c3c2)o1 [Lapatinib] + Cc1nc(Nc2ncc(C(=O)Nc3c(C)cccc3Cl)s2)cc(N2CCN(CCO)CC2)n1 [Dasatinib] (partner 0.075 µM)
In short: as §1

Wnt-C59 + OSI-027 = compound: CC1=NC=CC(=C1)C2=CC=C(C=C2)CC(=O)NC3=CC=C(C=C3)C4=CN=CC=C4 [Wnt-C59] + COc1cccc2cc(-c3nc([C@H]4CC[C@H](C(=O)O)CC4)n4ncnc(N)c34)[nH]c12 [OSI-027] (partner 0.5 µM)
In short: as §1

Wnt-C59 + Olaparib = compound: CC1=NC=CC(=C1)C2=CC=C(C=C2)CC(=O)NC3=CC=C(C=C3)C4=CN=CC=C4 [Wnt-C59] + O=C(c1cc(Cc2n[nH]c(=O)c3ccccc23)ccc1F)N1CCN(C(=O)C2CC2)CC1 [Olaparib] (partner 8 µM)
In short: as §1

Row | Cell Line | relative viability (Lapatinib + Olaparib; first compound 0.02 µM) | relative viability (Lapatinib + Olaparib; first compound 0.06325 µM) | relative viability (Lapatinib + Olaparib; first compound 0.2 µM) | relative viability (Lapatinib + Olaparib; first compound 0.6325 µM) | relative viability (Lapatinib + Olaparib; first compound 2 µM) | relative viability (Lapatinib + Dasatinib; first compound 0.02 µM) | relative viability (Lapatinib + Dasatinib; first compound 0.06325 µM) | relative viability (Lapatinib + Dasatinib; first compound 0.2 µM) | relative viability (Lapatinib + Dasatinib; first compound 0.6325 µM) | relative viability (Lapatinib + Dasatinib; first compound 2 µM) | relative viability (Wnt-C59 + OSI-027; first compound 0.001 µM) | relative viability (Wnt-C59 + OSI-027; first compound 0.01 µM) | relative viability (Wnt-C59 + OSI-027; first compound 0.03162 µM) | relative viability (Wnt-C59 + OSI-027; first compound 0.1 µM) | relative viability (Wnt-C59 + Olaparib; first compound 0.001 µM) | relative viability (Wnt-C59 + Olaparib; first compound 0.01 µM) | relative viability (Wnt-C59 + Olaparib; first compound 0.03162 µM) | relative viability (Wnt-C59 + Olaparib; first compound 0.1 µM)
1 | 201T | 0.85 | 0.848 | 0.858 | 0.833 | 0.778 | 0.566 | 0.382 | 0.596 | 0.62 | 0.599 | 0.717 | 0.725 | 0.761 | 0.627 | 0.845 | 0.884 | 0.841 | 0.867
2 | A549 | – | 0.217 | 0.376 | 0.364 | 0.269 | – | – | – | – | – | – | – | – | – | 0.302 | 0.321 | 0.357 | 0.332
3 | A-427 | 0.744 | 0.733 | 0.918 | 0.759 | 0.527 | – | 0.664 | 0.825 | 0.745 | 0.692 | 0.479 | 0.457 | 0.478 | 0.503 | 0.767 | 0.79 | 0.751 | 0.789
4 | ABC-1 | 0.983 | 0.882 | – | 0.781 | 0.9 | 0.538 | 0.584 | 0.513 | 0.662 | 0.56 | 0.441 | 0.597 | 0.435 | 0.389 | 1 | 0.898 | 0.502 | 0.846
5 | BEN | 1.13 | 1 | 1.07 | 1.01 | 0.837 | – | 0.307 | 0.303 | 0.28 | 0.358 | 0.256 | 0.309 | 0.306 | 0.305 | 1.32 | 1.04 | 1.27 | 0.94
6 | CAL-12T | 0.703 | 0.745 | 0.71 | 0.599 | 0.556 | – | 0.216 | 0.271 | 0.236 | 0.131 | 0.871 | 0.611 | 0.856 | 0.654 | 0.727 | 0.689 | 0.674 | 0.783
7 | COR-L23 | 0.329 | 0.358 | 0.33 | 0.309 | 0.275 | 0.501 | 0.441 | 0.508 | 0.565 | 0.443 | 0.763 | 0.701 | 0.954 | 0.735 | 0.295 | 0.309 | 0.362 | 0.32
8 | COR-L 105 | 0.603 | 0.657 | 0.647 | 0.669 | 0.406 | 0.266 | 0.238 | 0.277 | 0.232 | 0.205 | 0.916 | 0.696 | 0.635 | 0.632 | 0.708 | 0.727 | 0.684 | 0.656
9 | Calu-6 | 0.612 | 0.555 | 0.589 | 0.525 | 0.447 | – | – | – | – | – | – | – | – | – | 0.572 | 0.576 | 0.698 | 0.614
10 | ChaGo-K-1 | 0.418 | 0.471 | 0.478 | 0.431 | 0.396 | 0.43 | 0.531 | 0.544 | 0.527 | 0.592 | 0.512 | 0.569 | 0.525 | 0.563 | 0.419 | 0.417 | 0.462 | 0.435
11 | EBC-1 | 0.736 | 0.78 | 0.703 | 0.759 | 0.489 | – | – | – | – | – | – | – | – | – | 0.742 | 0.75 | 0.681 | 0.635
12 | EKVX | – | 0.694 | 0.77 | 0.602 | 0.337 | – | 0.321 | 0.423 | 0.384 | 0.196 | 0.728 | 0.574 | 0.648 | 0.565 | 0.837 | – | 0.906 | 0.72
13 | EMC-BAC-2 | – | 0.447 | 0.56 | 0.537 | 0.528 | 0.294 | 0.162 | 0.349 | 0.358 | 0.279 | 0.377 | 0.36 | 0.366 | 0.387 | 0.497 | 0.488 | 0.486 | 0.482
14 | EPLC-272H | 0.7 | 0.544 | 0.767 | 0.614 | 0.527 | – | – | 0.359 | 0.367 | 0.272 | 0.345 | 0.231 | 0.332 | 0.236 | 0.778 | 0.854 | 0.942 | 0.842
15 | H3255 | 0.526 | 0.516 | 0.634 | 0.469 | 0.325 | 0.316 | 0.325 | 0.315 | 0.288 | 0.18 | 0.683 | 0.58 | 0.685 | 0.545 | 0.641 | 0.458 | 0.56 | 0.526
16 | HARA | 0.712 | 0.552 | 0.957 | 0.618 | 0.402 | – | 0.195 | 0.244 | 0.242 | 0.19 | 0.478 | 0.337 | 0.64 | 0.518 | 0.826 | 0.784 | 0.866 | 0.856
17 | HCC-15 | – | 0.706 | 0.689 | 0.659 | 0.621 | – | 0.403 | 0.591 | 0.622 | 0.551 | 0.641 | 0.718 | 0.647 | 0.752 | 0.745 | 0.73 | 0.738 | 0.667
